In patent publication US9302988B2, “Fluoromethyl-substituted pyrrole carboxamides” (GRÜNENTHAL GMBH, priority 2012, dated 2016):

Target: T1, Human CaV2.2 channels (Homo sapiens, UniProt Q00975)
T1 construct: expressed in transfected cells
Assay: Fluorescent assay for CaV2.2 channels using potassium depolarization to induce channel opening (FLIPR, Fluo-4)
Assay type: cell-based
Details: 3 μM test compound, 30 mM KCl, HEK293 cells stably expressing human CaV2.2; read-out: %-Inhib (CaV2.2) @3 μM @30 mM KCl
In short: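 HEK293 cells stably co-expressing CaV2.2 with α2δ and β subunits plus Kir2.3 were Fluo-4 loaded, then preincubated 15 min at 25 °C with compound in 30 mM KCl buffer, pH 7.4. Depolarization was by adding buffer containing 210 mM KCl. Inhibition was taken from baseline-normalized peak fluorescence amplitude (ex 480/em 535 nm).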

T1 sequence (Q00975 whole entry): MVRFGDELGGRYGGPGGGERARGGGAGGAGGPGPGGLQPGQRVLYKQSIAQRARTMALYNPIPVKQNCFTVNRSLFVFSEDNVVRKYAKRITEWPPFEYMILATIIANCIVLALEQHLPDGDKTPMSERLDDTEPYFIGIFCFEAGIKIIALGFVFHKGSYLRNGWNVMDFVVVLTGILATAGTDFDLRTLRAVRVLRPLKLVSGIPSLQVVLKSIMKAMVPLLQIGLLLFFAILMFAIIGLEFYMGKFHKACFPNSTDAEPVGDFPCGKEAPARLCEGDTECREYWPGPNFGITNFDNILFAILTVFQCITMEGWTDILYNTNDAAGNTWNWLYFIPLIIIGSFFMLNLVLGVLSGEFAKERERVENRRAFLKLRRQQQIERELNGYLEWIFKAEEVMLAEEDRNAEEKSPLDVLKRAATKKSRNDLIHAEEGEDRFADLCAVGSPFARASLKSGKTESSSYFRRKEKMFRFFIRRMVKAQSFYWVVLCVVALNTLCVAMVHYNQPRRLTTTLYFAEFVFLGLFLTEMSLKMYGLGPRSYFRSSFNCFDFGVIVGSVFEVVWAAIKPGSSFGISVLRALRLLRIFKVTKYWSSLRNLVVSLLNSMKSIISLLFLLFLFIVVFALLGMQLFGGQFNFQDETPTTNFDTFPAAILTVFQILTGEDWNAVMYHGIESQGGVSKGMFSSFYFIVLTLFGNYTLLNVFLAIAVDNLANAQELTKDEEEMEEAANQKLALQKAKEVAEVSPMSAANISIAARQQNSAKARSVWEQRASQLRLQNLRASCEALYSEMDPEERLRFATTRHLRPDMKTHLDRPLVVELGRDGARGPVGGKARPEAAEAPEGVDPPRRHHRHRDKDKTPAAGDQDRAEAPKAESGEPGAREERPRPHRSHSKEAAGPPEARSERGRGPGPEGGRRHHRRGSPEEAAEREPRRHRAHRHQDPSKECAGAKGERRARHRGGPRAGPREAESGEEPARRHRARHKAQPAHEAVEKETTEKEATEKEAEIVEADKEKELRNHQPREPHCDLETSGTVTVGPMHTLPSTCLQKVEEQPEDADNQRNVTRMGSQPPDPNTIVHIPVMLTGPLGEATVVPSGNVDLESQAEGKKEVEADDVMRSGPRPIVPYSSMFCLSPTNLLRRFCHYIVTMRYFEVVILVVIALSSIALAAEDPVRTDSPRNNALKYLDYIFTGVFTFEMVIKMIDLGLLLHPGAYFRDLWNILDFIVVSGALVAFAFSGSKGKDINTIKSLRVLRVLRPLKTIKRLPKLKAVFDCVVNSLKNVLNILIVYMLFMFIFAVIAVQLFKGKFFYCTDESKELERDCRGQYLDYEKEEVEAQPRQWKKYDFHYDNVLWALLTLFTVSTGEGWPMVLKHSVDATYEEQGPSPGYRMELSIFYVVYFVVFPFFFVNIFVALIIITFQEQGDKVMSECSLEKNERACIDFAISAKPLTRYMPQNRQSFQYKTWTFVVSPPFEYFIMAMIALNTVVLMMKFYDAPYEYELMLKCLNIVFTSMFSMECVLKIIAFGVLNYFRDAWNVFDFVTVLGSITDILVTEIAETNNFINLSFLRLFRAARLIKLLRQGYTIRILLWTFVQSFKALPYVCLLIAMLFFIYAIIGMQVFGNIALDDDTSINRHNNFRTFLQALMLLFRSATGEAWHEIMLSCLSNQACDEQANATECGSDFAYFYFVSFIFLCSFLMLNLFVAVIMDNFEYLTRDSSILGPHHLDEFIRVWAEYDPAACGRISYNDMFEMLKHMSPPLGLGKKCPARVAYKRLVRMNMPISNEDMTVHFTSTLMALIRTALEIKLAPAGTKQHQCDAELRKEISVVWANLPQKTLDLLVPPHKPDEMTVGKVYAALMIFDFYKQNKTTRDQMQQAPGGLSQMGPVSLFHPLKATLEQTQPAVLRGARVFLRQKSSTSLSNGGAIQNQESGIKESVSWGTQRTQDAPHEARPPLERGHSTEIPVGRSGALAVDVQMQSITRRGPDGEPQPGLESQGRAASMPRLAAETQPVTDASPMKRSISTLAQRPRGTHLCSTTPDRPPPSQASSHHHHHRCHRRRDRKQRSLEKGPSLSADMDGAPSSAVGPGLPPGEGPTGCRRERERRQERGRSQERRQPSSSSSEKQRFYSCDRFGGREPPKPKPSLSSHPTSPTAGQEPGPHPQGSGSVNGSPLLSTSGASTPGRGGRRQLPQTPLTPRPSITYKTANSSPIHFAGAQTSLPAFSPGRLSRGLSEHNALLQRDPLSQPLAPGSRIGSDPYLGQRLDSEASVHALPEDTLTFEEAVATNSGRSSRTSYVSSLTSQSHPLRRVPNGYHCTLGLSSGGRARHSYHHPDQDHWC
T1 sequence (P54289 25-1103, further chain): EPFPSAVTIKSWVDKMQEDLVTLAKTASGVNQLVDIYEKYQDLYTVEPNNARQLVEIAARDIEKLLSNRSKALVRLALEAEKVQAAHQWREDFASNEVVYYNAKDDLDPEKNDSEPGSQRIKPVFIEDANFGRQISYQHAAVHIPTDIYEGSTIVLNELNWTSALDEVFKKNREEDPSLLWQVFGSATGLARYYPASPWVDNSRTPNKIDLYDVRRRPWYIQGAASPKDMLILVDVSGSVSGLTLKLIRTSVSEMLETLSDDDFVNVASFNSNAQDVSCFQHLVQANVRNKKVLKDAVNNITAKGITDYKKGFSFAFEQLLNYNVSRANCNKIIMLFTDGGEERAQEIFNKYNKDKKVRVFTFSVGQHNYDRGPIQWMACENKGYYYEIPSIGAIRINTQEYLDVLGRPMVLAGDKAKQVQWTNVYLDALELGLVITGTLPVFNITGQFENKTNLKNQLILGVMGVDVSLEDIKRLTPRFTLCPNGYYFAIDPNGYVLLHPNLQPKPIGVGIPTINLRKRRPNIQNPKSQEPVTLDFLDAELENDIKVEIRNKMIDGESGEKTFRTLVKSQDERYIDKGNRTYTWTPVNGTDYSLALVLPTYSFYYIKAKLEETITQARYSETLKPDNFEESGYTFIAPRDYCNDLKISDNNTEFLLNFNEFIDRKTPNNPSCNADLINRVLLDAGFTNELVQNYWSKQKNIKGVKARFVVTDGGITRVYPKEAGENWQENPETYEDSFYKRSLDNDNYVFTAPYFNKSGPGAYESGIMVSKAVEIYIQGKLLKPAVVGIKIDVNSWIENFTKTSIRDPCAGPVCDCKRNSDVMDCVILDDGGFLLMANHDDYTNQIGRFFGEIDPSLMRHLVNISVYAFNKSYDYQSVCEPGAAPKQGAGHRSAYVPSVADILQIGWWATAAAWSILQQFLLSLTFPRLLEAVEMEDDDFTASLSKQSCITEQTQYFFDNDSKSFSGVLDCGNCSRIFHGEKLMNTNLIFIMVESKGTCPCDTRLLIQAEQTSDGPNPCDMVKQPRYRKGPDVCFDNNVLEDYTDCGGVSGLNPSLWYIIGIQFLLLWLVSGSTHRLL
T1 sequence (P54284 whole entry, further chain): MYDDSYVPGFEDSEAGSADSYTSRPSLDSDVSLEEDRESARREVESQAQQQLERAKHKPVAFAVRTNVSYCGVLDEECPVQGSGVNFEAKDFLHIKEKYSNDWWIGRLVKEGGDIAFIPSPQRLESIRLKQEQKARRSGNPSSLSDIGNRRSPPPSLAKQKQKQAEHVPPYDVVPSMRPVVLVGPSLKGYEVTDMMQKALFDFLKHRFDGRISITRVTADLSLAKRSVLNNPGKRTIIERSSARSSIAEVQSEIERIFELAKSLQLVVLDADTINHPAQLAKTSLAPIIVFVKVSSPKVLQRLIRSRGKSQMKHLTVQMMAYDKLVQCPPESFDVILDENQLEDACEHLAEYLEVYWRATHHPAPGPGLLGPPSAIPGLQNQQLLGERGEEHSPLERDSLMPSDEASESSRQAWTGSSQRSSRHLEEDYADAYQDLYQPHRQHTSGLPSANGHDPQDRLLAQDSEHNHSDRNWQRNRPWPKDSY

| SMILES | inhibition at 3 µM |
| --- | --- |
| Cc1c(-c2ccc(Cl)cc2)c(C(=O)N(C)CC(C)(C)C)n(Cc2cccc(Cl)c2)c1C(F)(F)F [SC-53, 3-(4-Chlorophenyl)-1-[(3-chlorophenyl)-methyl]-N-(2,2-dimethyl-propyl)-N,4-dimethyl-5-(trifluoromethyl)-1H-pyrrole-2-carboxylic acid amide] | 75 to 95% |
| Cc1c(-c2ccc(Cl)cc2)c(C(=O)N2CCC(S(C)(=O)=O)C2)n(Cc2ccccc2)c1C(F)(F)F (stereo not drawn) [SC-123, [1-Benzyl-3-(4-chlorophenyl)-4-methyl-5-(trifluoromethyl)-1H-pyrrol-2-yl]-(3-methylsulfonyl-pyrrolidin-1-yl)-methanone] | > 95% |
| CN(CC(C)(C)C)C(=O)c1c(-c2ccc(Cl)cc2F)cc(C(F)(F)F)n1Cc1ccccc1 [SC-88, 1-Benzyl-3-(4-chloro-2-fluoro-phenyl)-N-(2,2-dimethyl-propyl)-N-methyl-5-(trifluoromethyl)-1H-pyrrole-2-carboxylic acid amide] | 75 to 95% |
| Cc1c(-c2ccc(C(F)(F)F)cc2)c(C(=O)N2CC(O)C2)n(Cc2ccccc2)c1C(F)(F)F [SC-232, [1-Benzyl-4-methyl-5-(trifluoromethyl)-3-[4-(trifluoromethyl)-phenyl]-1H-pyrrol-2-yl]-(3-hydroxy-azetidin-1-yl)-methanone] | 40 to 75% |
| CN(CC1CCC[C@H]1O)C(=O)c1c(-c2ccc(Cl)cc2)cc(C(F)(F)F)n1Cc1ccccc1 (stereo partly drawn) [SC-200, 1-Benzyl-3-(4-chlorophenyl)-N-[[(2R)-2-hydroxy-cyclopentyl]-methyl]-N-methyl-5-(trifluoromethyl)-1H-pyrrole-2-carboxylic acid amide] | > 95% |
| Cc1c(-c2ccc(Cl)cc2F)c(C(=O)N2CC(F)(F)C2)n(Cc2ccccc2)c1C(F)(F)F [SC-100, [1-Benzyl-3-(4-chloro-2-fluoro-phenyl)-4-methyl-5-(trifluoromethyl)-1H-pyrrol-2-yl]-(3,3-difluoro-azetidin-1-yl)-methanone] | 75 to 95% |
| Cc1c(-c2ccc(F)cc2)c(C(=O)N(C)C2CCOCC2)n(Cc2ccccc2)c1C(F)(F)F [SC-220, 1-Benzyl-3-(4-fluorophenyl)-N,4-dimethyl-N-tetrahydro-pyran-4-yl-5-(trifluoromethyl)-1H-pyrrole-2-carboxylic acid amide] | > 95% |
| Cc1c(-c2ccc(F)c(Cl)c2)c(C(=O)N2CCOC(C)(C)C2)n(Cc2ccccc2)c1C(F)(F)F [SC-258, [1-Benzyl-3-(3-chloro-4-fluoro-phenyl)-4-methyl-5-(trifluoromethyl)-1H-pyrrol-2-yl]-(2,2-dimethyl-morpholin-4-yl)-methanone] | 75 to 95% |
| Cc1c(-c2ccc(Cl)cc2)c(C(=O)N2CCOC(=O)C2)n(Cc2ccccc2)c1C(F)(F)F [SC-50, 4-[1-Benzyl-3-(4-chlorophenyl)-4-methyl-5-(trifluoromethyl)-1H-pyrrole-2-carbonyl]-morpholin-2-one] | 75 to 95% |
| CC(C)N(C)C(=O)c1c(-c2ccc(Cl)cc2)cc(C(F)(F)F)n1Cc1ccccc1 [SC-213, 1-Benzyl-3-(4-chlorophenyl)-N-isopropyl-N-methyl-5-(trifluoromethyl)-1H-pyrrole-2-carboxylic acid amide] | > 95% |
| CCS(=O)(=O)CCN(C)C(=O)c1c(-c2ccc(Cl)cc2)c(C)c(C(F)(F)F)n1Cc1ccccc1 [SC-132, 1-Benzyl-3-(4-chlorophenyl)-N-[2-(ethylsulfonyl)-ethyl]-N,4-dimethyl-5-(trifluoromethyl)-1H-pyrrole-2-carboxylic acid amide] | > 95% |
| CN(CCS(C)(=O)=O)C(=O)c1c(-c2ccc(Cl)cc2F)cc(C(F)(F)F)n1Cc1ccccc1 [SC-90, 1-Benzyl-3-(4-chloro-2-fluoro-phenyl)-N-methyl-N-(2-methylsulfonyl-ethyl)-5-(trifluoromethyl)-1H-pyrrole-2-carboxylic acid amide] | > 95% |
| Cc1c(-c2ccc(OC(F)(F)F)cc2)c(C(=O)N2CC(O)C2)n(Cc2ccccc2)c1C(F)(F)F [SC-239, [1-Benzyl-4-methyl-5-(trifluoromethyl)-3-[4-(trifluoromethyloxy)-phenyl]-1H-pyrrol-2-yl]-(3-hydroxy-azetidin-1-yl)-methanone] | 75 to 95% |
| CCN(CCS(C)(=O)=O)C(=O)c1c(-c2ccc(Cl)cc2)cc(C(F)(F)F)n1Cc1ccccc1 [SC-190, 1-Benzyl-3-(4-chlorophenyl)-N-ethyl-N-(2-methylsulfonyl-ethyl)-5-(trifluoromethyl)-1H-pyrrole-2-carboxylic acid amide] | > 95% |
| CN(Cc1cnccn1)C(=O)c1c(-c2ccc(Cl)cc2)cc(C(F)(F)F)n1Cc1ccccc1 [SC-210, 1-Benzyl-3-(4-chlorophenyl)-N-methyl-N-(pyrazin-2-yl-methyl)-5-(trifluoromethyl)-1H-pyrrole-2-carboxylic acid amide] | 75 to 95% |
| Cc1c(-c2ccc(OC(F)(F)F)cc2F)c(C(=O)N2CCOCC2)n(Cc2ccccc2)c1C(F)(F)F [SC-262, (1-benzyl-3-(2-fluoro-4-(trifluoromethoxy)phenyl)-4-methyl-5-(trifluoromethyl)-1H-pyrrol-2-yl)(morpholino)methanone] | 75 to 95% |
| Cc1c(-c2ccc(Cl)cc2)c(C(=O)N2CC(F)(F)C2)n(Cc2ccccc2)c1C(F)(F)F [SC-93, [1-Benzyl-3-(4-chlorophenyl)-4-methyl-5-(trifluoromethyl)-1H-pyrrol-2-yl]-(3,3-difluoro-azetidin-1-yl)-methanone] | 75 to 95% |
| Cc1c(-c2ccc(F)c(Cl)c2)c(C(=O)N2CC(F)(F)C2)n(Cc2ccccc2)c1C(F)(F)F [SC-99, [1-Benzyl-3-(3-chloro-4-fluoro-phenyl)-4-methyl-5-(trifluoromethyl)-1H-pyrrol-2-yl]-(3,3-difluoro-azetidin-1-yl)-methanone] | 40 to 75% |
| CN(CC(C)(C)C)C(=O)c1c(-c2ccc(Cl)cc2)cc(C(F)(F)F)n1Cc1ccc(F)cc1 [SC-261, 3-(4-Chlorophenyl)-N-(2,2-dimethyl-propyl)-1-[(4-fluorophenyl)-methyl]-N-methyl-5-(trifluoromethyl)-1H-pyrrole-2-carboxylic acid amide] | 75 to 95% |
| Cc1c(-c2ccc(Cl)cc2F)c(C(=O)N(C)C2CCS(=O)(=O)C2)n(Cc2ccccc2)c1C(F)(F)F (stereo not drawn) [SC-171, 1-Benzyl-3-(4-chloro-2-fluoro-phenyl)-N-(1,1-dioxo-thiolan-3-yl)-N,4-dimethyl-5-(trifluoromethyl)-1H-pyrrole-2-carboxylic acid amide] | > 95% |
| Cc1c(-c2ccc(Cl)cc2F)c(C(=O)N2CCCC2CS(C)(=O)=O)n(Cc2ccccc2)c1C(F)(F)F (stereo not drawn) [SC-162, [1-Benzyl-3-(4-chloro-2-fluoro-phenyl)-4-methyl-5-(trifluoromethyl)-1H-pyrrol-2-yl]-[2-(methylsulfonyl-methyl)-pyrrolidin-1-yl]-methanone] | > 95% |
| Cc1c(-c2ccc(Cl)cc2)c(C(=O)N(C)CC(C)(C)CN(C)CCN2CCCC2)n(Cc2ccccc2)c1C(F)(F)F [SC-139, 1-Benzyl-3-(4-chlorophenyl)-N-[2,2-dimethyl-3-[methyl-(2-pyrrolidin-1-yl-ethyl)-amino]-propyl]-N,4-dimethyl-5-(trifluoromethyl)-1H-pyrrole-2-carboxylic acid amide] | > 95% |
| Cc1c(-c2ccc(Cl)cc2)c(C(=O)N2CCS(=O)(=O)CC2)n(Cc2ccccc2)c1C(F)(F)F [SC-26, [1-Benzyl-3-(4-chlorophenyl)-4-methyl-5-(trifluoromethyl)-1H-pyrrol-2-yl]-(1,1-dioxo-[1,4]thiazinan-4-yl)-methanone] | 75 to 95% |
| CNC(=O)c1c(-c2ccc(Cl)cc2)c(C)c(C(F)(F)F)n1Cc1ccccc1 [SC-22, 1-Benzyl-3-(4-chlorophenyl)-N,4-dimethyl-5-(trifluoromethyl)-1H-pyrrole-2-carboxylic acid amide] | 75 to 95% |
| Cc1c(-c2ccc(Cl)cc2)c(C(=O)N(C)C2(C(N)=O)CC2)n(Cc2ccccc2)c1C(F)(F)F [SC-49, 1-Benzyl-N-(1-carbamoyl-cyclopropyl)-3-(4-chlorophenyl)-N,4-dimethyl-5-(trifluoromethyl)-1H-pyrrole-2-carboxylic acid amide] | > 95% |
| Cc1c(-c2ccc(Cl)cc2)c(C(=O)N(C)C(C)(C)CO)n(Cc2ccccc2)c1C(F)(F)F [SC-126, 1-Benzyl-3-(4-chlorophenyl)-N-(2-hydroxy-1,1-dimethyl-ethyl)-N,4-dimethyl-5-(trifluoromethyl)-1H-pyrrole-2-carboxylic acid amide] | > 95% |
| Cc1c(-c2ccc(Cl)cc2)c(C(=O)N2CCC(O)CC2)n(Cc2ccccc2)c1C(F)(F)F [SC-17, [1-Benzyl-3-(4-chlorophenyl)-4-methyl-5-(trifluoromethyl)-1H-pyrrol-2-yl]-(4-hydroxy-piperidin-1-yl)-methanone] | > 95% |
| CN(CC(C)(C)N1CCOCC1)C(=O)c1c(-c2ccc(Cl)cc2)cc(C(F)(F)F)n1Cc1ccccc1 [SC-85, 1-Benzyl-3-(4-chlorophenyl)-N-methyl-N-(2-methyl-2-morpholin-4-yl-propyl)-5-(trifluoromethyl)-1H-pyrrole-2-carboxylic acid amide] | > 95% |
| Cc1c(-c2ccc(Cl)cc2)c(C(=O)N(C)CCS(C)(=O)=O)n(Cc2ccccc2)c1C(F)(F)F [SC-06, 1-Benzyl-3-(4-chlorophenyl)-N,4-dimethyl-N-(2-methylsulfonyl-ethyl)-5-(trifluoromethyl)-1H-pyrrole-2-carboxylic acid amide] | > 95% |
| CN(CCC1CCCO1)C(=O)c1c(-c2ccc(Cl)cc2)cc(C(F)(F)F)n1Cc1ccccc1 (stereo not drawn) [SC-195, 1-Benzyl-3-(4-chlorophenyl)-N-methyl-N-(2-tetrahydro-furan-2-yl-ethyl)-5-(trifluoromethyl)-1H-pyrrole-2-carboxylic acid amide] | > 95% |
